{"source": "patent US20070011757A1", "about": "“Transgenic rodents as animal models for modulation of B1 bradykinin receptor protein” (priority 2001, published 2007)", "key": {"[1]": {"target": "T1, human B1 bradykinin receptor (Homo sapiens, UniProt P46663)", "T1 construct": "from tissue; host or cells: whole-brain membranes of transgenic Sprague-Dawley rats carrying Construct #1", "T1 sequence (P46663 1-353)": "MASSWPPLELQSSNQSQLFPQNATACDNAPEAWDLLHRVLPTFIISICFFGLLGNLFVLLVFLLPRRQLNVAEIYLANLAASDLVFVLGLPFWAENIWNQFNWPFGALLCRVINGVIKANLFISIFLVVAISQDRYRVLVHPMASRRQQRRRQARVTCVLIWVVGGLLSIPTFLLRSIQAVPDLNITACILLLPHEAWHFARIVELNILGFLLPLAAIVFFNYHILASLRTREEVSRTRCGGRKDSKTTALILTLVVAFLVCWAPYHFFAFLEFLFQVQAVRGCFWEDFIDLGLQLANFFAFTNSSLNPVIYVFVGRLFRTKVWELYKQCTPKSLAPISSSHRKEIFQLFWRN", "assay": "3H-DALK binding to membranes from transgenic rat brain tissue", "description": "Also important in these assays is the low expression level of endogenous B1 receptor in neuronal tissue. Briefly, transgenic animals from line 0004, 0014, and 0015 (all females) were decapitated following anesthesia and the whole brain was removed, bisected sagitally and the entire 1⁄2 brain weighed. Weights were as follows: line 0004 (813 mg), line 0014 (851 mg), and 0015 (843 mg). The brain tissue was homogenized with a Polytron in ice cold 50 mM Tris-HCl, 1 mM EDTA, 1 mM o-phenanthroline, pH 7.4. The homogenate was centrifuged at 50,000×g for 20 minutes. The pellet was resuspended and homogenized a second time in Tris buffer, and the centrifugation step was repeated. The final pellet was resuspended in assay buffer (20 mM HEPES, 120 mM NaCl, 5 mM KCl, 1 mM o-phenanthroline, 0.2 uM of […] form and active metabolite of […] added to inhibit angiotensin converting enzyme), 100 μg/ml bacitracin, 3 μM amastatin, 1 μM phosphoramidon, 0.1% BSA, pH 7.4. The assay was carried out in a 0.5 ml volume at room temperature for sixty minutes with 10 mg wet weight tissue/tube. Total protein was determined using a Bio Rad DC assay kit. […] FIG. 9A, 9B and 9C show measurements of the amount of total, nonspecific and specific binding of ^3H-DALK to transgenic rat brain tissue which expresses human B1 bradykinin receptor. […] In contrast, no B1 receptor is detected in the brains of non-transgenic rats. The Ki values determined for three standard lead compounds in Line 0004 are very similar to those obtained at the cloned hB1 receptor expressed in CHO cells. Therefore, expression of the human B1 bradykinin receptor in Line 0004 has the properties expected for the human B1 receptor."}, "endogenous B1 receptor": {"target": "T2, endogenous B1 receptor (Rattus norvegicus, UniProt P97583)", "T2 construct": "DALK in non-transgenic control rats; from tissue; host or cells: brain and spinal cord sections (and whole-brain homogenate) of non-transgenic Sprague-Dawley rats", "T2 sequence (P97583 1-337)": "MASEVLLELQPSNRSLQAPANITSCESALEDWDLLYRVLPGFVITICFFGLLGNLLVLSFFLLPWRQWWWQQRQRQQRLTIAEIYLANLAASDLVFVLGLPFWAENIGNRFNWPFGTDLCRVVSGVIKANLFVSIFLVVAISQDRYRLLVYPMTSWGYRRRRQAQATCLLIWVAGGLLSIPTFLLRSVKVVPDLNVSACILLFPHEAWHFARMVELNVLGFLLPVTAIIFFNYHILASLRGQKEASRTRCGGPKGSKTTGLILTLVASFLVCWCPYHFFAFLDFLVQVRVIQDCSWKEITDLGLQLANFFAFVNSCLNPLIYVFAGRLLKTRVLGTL", "assay": "Autoradiography of [3H]DALK binding in brain and spinal cord sections of non-transgenic rats", "details": "non-transgenic control rats, 0.3 nM radioligand"}}}
{"substance": "[des-Arg^10, Leu^9]-Kallidin [^3H-DALK]", "values": [{"measurement": "affinity for the human B1 receptor relative to the rat B1 receptor", "setting": "[1]", "value": "greater affinity"}, {"measurement": "selectivity", "setting": "[1]; printed as 'approximately 40 fold selective for this ligand'", "value": "approximately 40 fold"}, {"measurement": "expression (specific binding of 3H-DALK, saturation binding)", "setting": "[1]; transgenic rat Line 0004 brain membranes, FIG. 9A", "value": 40, "unit": "fmol/mg protein"}, {"measurement": "expression (specific binding of 3H-DALK, saturation binding)", "setting": "[1]; transgenic rat Line 0014 brain membranes, FIG. 9B", "value": 4, "unit": "fmol/mg protein"}, {"measurement": "expression (specific binding of 3H-DALK, saturation binding)", "setting": "[1]; transgenic rat Line 0015 brain membranes, FIG. 9C", "value": 7, "unit": "fmol/mg protein"}, {"measurement": "binding site in transgenic rats expressing the human B1 receptor", "setting": "[1]; whole brain homogenate assay or receptor autoradiography of brain slices", "value": "readily detectable"}, {"measurement": "specific binding", "setting": "endogenous B1 receptor", "value": "did not show any specific binding signal"}, {"measurement": "specific binding", "setting": "endogenous B1 receptor; listed as [H-3] DALK", "value": "no detectable specific binding"}]}
